Experiments:
[1] = test system: gastric secretion; test: Inhibition of Gastric Secretion, pylorus-ligated rats (Experiment 2); assay type: in vivo, Sprague-Dawley rats; details: relative to omeprazole (equation III), 20 mg/kg intraduodenally, pylorus-ligated rats, 5 hours
Protocol: In accordance with the method disclosed in Shay, H., et al., Gastroenterology 5, 43-61(1945), Experiment 2 was carried out.
Sprague-Dawley rats having a body weight of 170±10 g were divided into 3 groups(n=5) and deprived of food for 24 hours before the experiment with free access to water. Under ether anesthesia, the abdomen was incised, and the pylorus was ligated. As a comparative group, Group 1 was administered intraduodenally in a volume of 0.5 ml/200 g of 30% aqueous polyethylene glycol 400 solution. Groups 2 and 3 were administered intraduodenally with the compound of Example 34 and omeprazole, respectively, each of which was suspended in 30% aqueous polyethylene glycol 400 solution at a concentration of 20 mg/kg. After closing the abdominal cavity, the rats were placed for 5 hours and then killed by cervical dislocation. The stomach was extracted to obtain gastric juice.
The gastric juice was centrifuged at 1,000 g to remove precipitates. The amount and acidity of the gastric juice were measured. Relative volumes, relative acid concentrations and relative acid outputs of the test compounds were calculated from equations(I), (II) and (III) and the results are shown in Table 2.
(I) = the average amount of gastric juice of Group 1 - the
average amount of gastric juice of Group 2)/(the average
amount of gastric juice of Group 1 - the average amount
of gastric juice of Group 3)
Relative acid concentration
(II) = (the average acidity of Group 1 - the average
acidity of Group 2)/(the average acidity of Group 1 - the average
(III) = (the total amount of acid output of Group 1 - the
total amount of acid output of Group 2)/(the total amount of acid
output of Group 1 - the total amount of acid output of Group

[2] = target: T1, Proton Pump (H^+ /K^+ ATPase) (Oryctolagus cuniculus, UniProt P27112); test: Inhibition of Proton Pump (H+/K+ ATPase) Activity, in vitro enzyme reaction (Experiment 1); assay type: biochemical, New Zealand white rabbit; details: for Effect ratio: IC50 of Omeprazole / IC50 of test compound; for IC50: K+-stimulated H+/K+ ATPase activity, rabbit gastric microsomes, pH 7.2, 37° C., 15 min prereaction, 30 min reaction, read-out: IC50 of test compound, inhibition (50%) of the proton pump activity
T1 construct: The microsomes thus obtained were used as an enzyme source of the in vitro enzyme reaction study of proton pump; from tissue; host or cells: rabbit stomach, mucosal scrapings, microsomes (180,000 g pellet)
Protocol: A New Zealand white rabbit was killed by blowing its head and the stomach was taken out. The contents of the stomach were removed and the stomach walls were washed with was saline. The inner wall of the stomach was scratched out with a slide glass and the cells thus obtained were homogenized in 0.25M sucrose buffer by means of a Teflon-glass homogenizer. The homogenous solution was centrifuged at 10,000 g for 10 minutes and the supernatant was further centrifuged at 20,000 g for 20 minutes. The supernatant thus obtained was centrifuged at an ultra-high speed of 180,000 g for 1 hour. The pellets precipitated were collected by discarding the supernatant and suspended in 50 mM Tris-HCl buffer having pH 7.2. The suspension was dialyzed twice with the same buffer(of 1,000 times volume) for 3 hours and stored into liquid nitrogen.
The above centrifugation and dialysis were carried out at 4° C. The microsomes thus obtained were used as an enzyme source of the in vitro enzyme reaction study of proton pump.
The inhibitory effects of proton pump activity by the compounds of the present invention were measured by the in vitro enzyme reaction study. The proton pump activity stimulated by Mg^++ was used as a negative comparative group, and the activity stimulated by Mg^++ and K^+ was used as a positive comparative group. The comparative compound was omeprazole.
Test tubes were divided into 4 groups: Group 1 as negative comparative group(n=3), Group 2 as positive comparative group(n=3), Group 3(n=5) to be administered with the compound of the present invention and Group 4(n=5) to be administered with the comparative compound. The inhibitory effects of proton pump activity of Groups 3 and 4 were measured by employing the compound prepared in Example 34 and omeprazole, respectively, each of which was dissolved in dimethylsulfoxide at 5 different concentrations.
To each of Groups 1, 2, 3 and 4, were added 0.1 ml of magnesium chloride(40 mM) dissolved in 50 mM Tris-HCl buffer (pH 7.2) and […] of the enzyme source prepared in Experiment 1-1. Then, 0.1 ml of potassium chloride(500 mM) and 0.1 ml of ammonium chloride(100 mM) dissolved in 50 mM Tris-HCl buffer(pH 7.2) were added to all groups except for Group 1.
0.1 ml of dimethylsulfoxide was added to each of Groups 1 and 2; and to Group 3 was added 0.01 ml of the solution in which the compound prepared in Example 34 was dissolved in dimethylsulfoxide at 5 different concentrations. To Group 4, 0.01 ml of the solution prepared by dissolving omprazole in dimethylsulfoxide at 5 different concentrations(37.6, 21.4, 12.2, 7.0 and 4.0 μM) was added. 50 mM Tris-HCl buffer was added thereto so as to make the total volume 0.4 ml.
Thereafter, the test tubes of each Group were placed at 37° C. for 15 minutes for the prereaction. 0.1 ml of ATP solution(33.3 mM), which was prepared by adding Tris-ATP 50 mM to Tris-HCl buffer having pH 7.2, was added until the reaction volume became 0.5 ml. The final concentrations of MgCl2, KCl, NH4 Cl, ATP, enzyme and Tris-HCl were 8 mM, 100 mM, 20 mM, 6.7 mM, 100μg/ml and 50 mM, respectively. After the reaction was carried out at 37° C. for 30 minutes, 25% cold trichloroacetic acid was added to terminate the enzyme reaction. The released inorganic phosphate was measured by an automatic analyzer(SBA 300, Gilford).
The difference between Group 1 and Group 2 represents the proton pump activity activated by K^+ only. The inhibition percentages of Groups 3 and 4 were calculated from Litchfield-wilcoxon equation[see J. Pharmacol. Exptl. Ther. 96, 99(1949)]. The concentrations of the test compounds which inhibit 50% of the proton pump activity are represented as IC50 in Table 1.

T1 sequence (P27112 whole entry): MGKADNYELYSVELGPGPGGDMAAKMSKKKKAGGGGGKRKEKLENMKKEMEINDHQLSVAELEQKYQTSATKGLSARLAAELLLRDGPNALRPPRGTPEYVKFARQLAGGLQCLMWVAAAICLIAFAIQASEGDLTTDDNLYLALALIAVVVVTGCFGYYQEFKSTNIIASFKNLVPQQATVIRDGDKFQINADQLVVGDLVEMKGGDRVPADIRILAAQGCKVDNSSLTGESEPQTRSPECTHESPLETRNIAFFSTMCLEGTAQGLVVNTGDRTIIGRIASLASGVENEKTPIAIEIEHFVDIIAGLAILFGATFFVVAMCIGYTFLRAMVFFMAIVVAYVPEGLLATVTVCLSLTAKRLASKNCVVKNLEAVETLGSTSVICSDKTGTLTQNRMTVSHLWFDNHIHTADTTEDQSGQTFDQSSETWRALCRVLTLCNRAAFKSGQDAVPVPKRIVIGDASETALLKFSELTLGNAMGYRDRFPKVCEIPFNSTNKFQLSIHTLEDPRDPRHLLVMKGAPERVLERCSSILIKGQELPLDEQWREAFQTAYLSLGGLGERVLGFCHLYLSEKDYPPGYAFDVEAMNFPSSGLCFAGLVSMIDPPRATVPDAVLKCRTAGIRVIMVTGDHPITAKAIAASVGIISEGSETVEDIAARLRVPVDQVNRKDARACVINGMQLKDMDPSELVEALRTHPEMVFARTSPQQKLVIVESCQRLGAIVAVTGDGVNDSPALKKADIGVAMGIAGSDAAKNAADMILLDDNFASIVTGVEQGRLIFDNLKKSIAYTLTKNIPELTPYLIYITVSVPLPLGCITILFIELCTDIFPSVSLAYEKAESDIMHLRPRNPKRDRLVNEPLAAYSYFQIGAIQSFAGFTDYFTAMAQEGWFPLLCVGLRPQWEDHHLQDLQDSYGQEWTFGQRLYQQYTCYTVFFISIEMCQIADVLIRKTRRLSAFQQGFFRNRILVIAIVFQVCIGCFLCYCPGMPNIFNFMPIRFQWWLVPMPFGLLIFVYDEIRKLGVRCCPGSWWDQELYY
T1 sequence (P18597 whole entry partner): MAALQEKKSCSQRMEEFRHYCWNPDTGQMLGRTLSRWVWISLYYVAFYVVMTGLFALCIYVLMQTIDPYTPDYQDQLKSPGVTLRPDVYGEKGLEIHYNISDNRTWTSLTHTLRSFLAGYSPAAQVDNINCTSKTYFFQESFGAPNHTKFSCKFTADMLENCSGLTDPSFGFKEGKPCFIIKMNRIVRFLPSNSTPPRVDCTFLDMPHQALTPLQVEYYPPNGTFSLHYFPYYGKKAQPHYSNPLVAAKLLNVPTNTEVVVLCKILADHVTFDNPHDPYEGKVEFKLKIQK

SMILES: COc1cccc2c(N3CCc4cc(C)ccc4C3C)nc(Nc3ccc(F)cc3)nc12.Cl (stereo not drawn) [Example 54, 2-(4-Fluorophenylamino)-8-Methoxy-4-(1,6-Dimethyl-1,2,3,4-Tetrahydroisoquinoline-2-Yl)Quinazoline Hydrochloride]
- Relative Acid Output [1]: 0.82
- Effect ratio [2]: ~ 0.64
- IC50 [2]: ~12.5 µM

SMILES: COc1cccc2c(N3CCc4cc(C)ccc4C3C)nc(Nc3ccc(F)cc3C)nc12.Cl (stereo not drawn) [Example 55, 2-(4-Fluoro-2-Methylphenyl-Amino)-8-Methoxy-4-(1,6-Dimethyl-1,2,3,4-Tetrahydroisoquinoline-2-Yl)Quinazoline Hydrochloride]
- Relative Acid Output [1]: 0.50
- Effect ratio [2]: ~ 0.80
- IC50 [2]: ~10 µM

SMILES: COc1cccc2c(N3CC(C)c4ccccc4C3C)nc(Nc3ccc(F)cc3)nc12.Cl (stereo not drawn) [Example 56, 2-(4-Fluorophenylamino)-8-Methoxy-4-(1,4-Dimethyl-1,2,3,4-Tetrahydroisoquinoline-2-Yl)Quinazoline Hydrochloride]
- Relative Acid Output [1]: 0.85
- Effect ratio [2]: < 0.60
- IC50 [2]: > 12.5 µM

SMILES: COc1cccc2c(N3CC(C)c4ccccc4C3C)nc(Nc3ccc(F)cc3C)nc12.Cl (stereo not drawn) [Example 57, 2-(4-fluoro-2-Methylphenyl-Amino)-8-Methoxy-4-(1,4-Dimethyl-1,2,3,4-Tetrahydroisoquinoline-2-Yl) Quinazoline Hydrochloride]
- Relative Acid Output [1]: 0.67
- Effect ratio [2]: 1.04
- IC50 [2]: 7.18 µM

SMILES: COc1cccc2c(N3CCc4cccc5c4C3CC5)nc(Nc3ccc(F)cc3)nc12.Cl (stereo not drawn) [Example 58, 8-Methoxy-2-(4-Fluorophenyl-Amino)-4-(1,8-Ethano-1,2,3,4-Tetrahydroisoquinoline-2-Yl)Quinazoline Hydrochloride]
- Relative Acid Output [1]: 0.94
- Effect ratio [2]: 0.65
- IC50 [2]: 13.6 µM

SMILES: COc1cccc2c(N3CCc4cccc5c4C3CC5)nc(Nc3ccc(F)cc3C)nc12.Cl (stereo not drawn) [Example 59, 8-Methoxy-2-(4-Fluoro-2-Methyl-Phenylamino)-4-(1,8-Ethano-1,2,3,4-Tetrahydroisoquinoline-2-Yl)Quinazoline Hydrochloride]
- Relative Acid Output [1]: 0.83
- Effect ratio [2]: 1.77
- IC50 [2]: 4.8 µM

SMILES: COc1cccc2c(N3CCc4ccccc4C3C)nc(Nc3ccc(F)cc3C)nc12.CS(=O)(=O)O (stereo not drawn) [Example 60, 2-(4-Fluoro-2-MethylPhenyl-Amino)-8-Methoxy-4-(1-Methyl-1,2,3,4-Tetrahydroisoquinoline-2-Yl)Quinazoline Methanesulfonate]
- Relative Acid Output [1]: 0.84
- Effect ratio [2]: 5.20
- IC50 [2]: 1.8 µM

SMILES: COc1cccc2c(N3CCc4ccccc4C3C)nc(Nc3ccc(F)cc3C)nc12.O=C(O)CC(O)C(=O)O (stereo not drawn) [Example 61, 2-(4-Fluoro-2-Methylphenyl-Amino)-8-Methoxy-4-(1-Methyl-1,2,3,4-Tetrahydroisoquinoline-2-Yl)Quinazoline Malate]
- Relative Acid Output [1]: 0.76
- Effect ratio [2]: 4.42
- IC50 [2]: 2.1 µM

Source: US5686458A, “Quinazoline deriviates for treating peptic ulcer” (Yuhan Corporation, priority 1992, dated 1997)
